Test results reported in patent US8765772B2, “Purine derivatives for use in the treatment of allergic, inflammatory and infectious diseases” (GlaxoSmithKline LLC, priority 2008, dated 2014).

Test system: TNF-α
Experiment: Induction of TNF-α using fresh human PBMCs
Format: cell-based
Details: PBMC, 24 hr incubation, relative to 2 μM resiquimod control, read-out: mean pEC50 for induction of TNF-α (converted)
Procedure: Assay for the Induction of Interferon-α and TNF-α using Fresh Human Peripheral Blood Mononuclear Cells (PBMCs)
Compounds were dissolved and serially diluted in DMSO to give 100× the required concentration range using a Biomek 2000. 1 ul of test compound was transferred into 96-well tissue culture plates using a Biomek FX. Each compound was assayed in duplicate for each donor. Each plate contained a dilution series of the TLR7/8 agonist resiquimod as standard and Column 11 contained 1 μl of 200 μM resiquimod (giving a 2 μM final concentration, used to define the approximate maximal response to resiquimod).
Blood samples from two human donors were collected into sodium heparin (10 U/ml). 25 ml volumes of whole blood were overlaid onto 15 mls Histopaque in Leucosep tubes which were centrifuged at 800 g for 20 min and the band at the plasma/histopaque interface carefully removed. The collected cells were centrifuged at 2500 rpm for 10 min and the pellet resuspended in 10 ml of media (RPMI 1640 (Low endotoxin) supplemented with 10% v/v foetal calf serum (FCS, low endotoxin) 100 U/ml penicillin G, 100 μg/ml streptomycin, 10 mM L-glutamine and 1× non-essential amino acids). A 1:20 dilution of the cells was prepared using trypan blue & the cells counted using a haemocytometer. The PBMCs were diluted to give a final concentration of 2×10^6/ml and 100 ul of this cells suspension was added to wells containing 1 μl of diluted test compound.
Incubation and Assays for Interferon-α and TNF-α
The cell preparations were incubated for 24 hr (37° C., 95% air, 5% CO2) after which a sample of the supernatant was removed using the Biomek FX and assayed for both IFN-α and TNF-α using the MSD (Mesoscale Discovery) electrochemiluminescence assay platform. The IFN-α assay was carried out similarly to that described above. The TNF-α assay was carried out as per kit instructions (Cat No K111BHB). Cytokine released was expressed as a percentage of the 2 μM resiquimod control (column 11). This percentage was plotted against compound concentration and the pEC50 for the response determined by non-linear least squares curve fitting. For the IFN-α responses generally a 4 parameter logistic model was selected. For the TNF responses where a clear maximum response was obtained (i.e. a well defined plateau in the response was observed) then a 4 parameter model was generally used. If the upper asymptote of the curve wasn't well defined then the curve fitting was generally constrained to a maximal response of 100% (i.e. to the response to 2 μM resiquimod) or to the response of the highest concentration tested if this was greater than the resiquimod response. Some curves were bell shaped for one or both cytokines and the cytokine data on the down slope of the bell shaped response (i.e. concentrations above those giving the maximal response) were generally excluded from the fit, usually with the exception of the concentration immediately above the peak response. Curve fitting thus concentrated on the up slope of the dose response curve.

EC50 [nM]	SMILES
≥ 1000	CCCCOc1nc(N)c2[nH]c(=O)n(CCCCCCN3CCCC3)c2n1 [Example 13, 6-Amino-2-(butyloxy)-9-[6-(1-pyrrolidinyl)hexyl]-7,9-dihydro-8H-purin-8-one]
≥ 1000	CCCCOc1nc(N)c2[nH]c(=O)n(CCCCCCN3CCCCCC3)c2n1 [Example 15, 6-Amino-2-(butyloxy)-9-[6-(hexahydro-1H-azepin-1-yl)hexyl]-7,9-dihydro-8H-purin-8-one]
≥ 1000	CCC[C@H](C)Oc1nc(N)c2[nH]c(=O)n(CCCCN3CCCCC3)c2n1 [Example 20, 6-Amino-2-{[(1S)-1-methylbutyl]oxy}-9-[4-(1-piperidinyl)butyl]-7,9-dihydro-8H-purin-8-one]
≥ 1000	CCC[C@H](C)Oc1nc(N)c2[nH]c(=O)n(CCCCN3CCCCCC3)c2n1 [Example 21, 6-Amino-9-[4-(hexahydro-1H-azepin-1-yl)butyl]-2-{[(1S)-1-methylbutyl]oxy}-7,9-dihydro-8H-purin-8-one]
≥ 1000	CCC[C@H](C)Oc1nc(N)c2[nH]c(=O)n(CCCCCN3CCCCC3)c2n1 [Example 22, 6-Amino-2-{[(1S)-1-methylbutyl]oxy}-9-[5-(1-piperidinyl)pentyl]-7,9-dihydro-8H-purin-8-one]
≥ 1000	CCC[C@H](C)Oc1nc(N)c2[nH]c(=O)n(CCCCCN3CCCCCC3)c2n1 [Example 23, 6-Amino-9-[5-(hexahydro-1H-azepin-1-yl)pentyl]-2-{[(1S)-1-methylbutyl]oxy}-7,9-dihydro-8H-purin-8-one]
